Data as given in PMC3192848 (PLoS Pathogens, 2011).

biological target: T1, EtMIC3-MAR1b (thioredoxin-His fusion, microarray) (Eimeria tenella, UniProt B6VCV4); type: binding; settings: lipid-linked probe immobilised at 5 fmol/spot; 40 µg/ml protein precomplexed with anti-His antibodies; ambient temperature
T1 construct: gene mic3

**Q.** Which “Fluorescence signal intensities / EtMIC3-MAR1b” value does the source give for GT1b [compound 109] here?
**A.** 8,121 fluorescence units

**Q.** Which “Fluorescence signal intensities / EtMIC3-MAR1b” value does the source give for “NeuAcα-3Galβ-3GlcNAcβ-3Galβ-4Glcß-C30 [compound 38]” here?
**A.** 5,423 fluorescence units

**Q.** Which “Fluorescence signal intensities / EtMIC3-MAR1b” value does the source give for “NeuAcα-6Galβ-4GlcNAcβ-3Galβ-4Glc-DH [compound 79]” here?
**A.** 5,570 fluorescence units

biological target: T2, TgMIC1-MARR (Toxoplasma gondii, UniProt O00834); type: binding; settings: lipid-linked probe immobilised at 5 fmol/spot; 40 µg/ml protein precomplexed with anti-His antibodies; ambient temperature
T2 construct: gene MIC1
T2 sequence (O00834 17-262): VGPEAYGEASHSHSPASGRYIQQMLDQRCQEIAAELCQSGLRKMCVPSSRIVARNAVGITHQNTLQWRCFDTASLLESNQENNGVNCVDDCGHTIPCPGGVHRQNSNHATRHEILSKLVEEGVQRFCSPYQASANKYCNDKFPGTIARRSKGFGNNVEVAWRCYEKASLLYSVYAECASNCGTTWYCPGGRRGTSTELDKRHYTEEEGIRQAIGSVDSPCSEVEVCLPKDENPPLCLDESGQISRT

**Q.** With NeuAcα-3Galß-4Glcß-Cer [compound 59] as the compound, how does the “Fluorescence signal intensities / TgMIC1-MARR” value read?
**A.** 4,327 fluorescence units

**Q.** For “NeuAcα-3Galβ-3GlcNAcβ-3Galβ-4Glcß-C30 [compound 38]”, which “Fluorescence signal intensities / TgMIC1-MARR” value is on record?
**A.** 11,580 fluorescence units

**Q.** Which “Fluorescence signal intensities / TgMIC1-MARR” value does the source give for NeuGcα-3Galß-4Glcß-Cer [compound 60] here?
**A.** 12,526 fluorescence units

**Q.** Which “Fluorescence signal intensities / TgMIC1-MARR” value does the source give for “NeuGcα-3Galβ-3GlcNAcβ-3Galβ-4Glcß-C30 [compound 39]” here?
**A.** 11,075 fluorescence units

**Q.** NeuGcα-6GalNAc-AO [compound 88] was tested. Which “Fluorescence signal intensities / TgMIC1-MARR” value did it give?
**A.** 13,982 fluorescence units

biological target: T3, EtMIC3-MAR1b (NMR construct) (Eimeria tenella, UniProt B6VCV4); type: binding; settings: phosphate buffer pH 5.5; sialic acid contacts L175, Y178 and HLT motif
T3 construct: gene mic3

**Q.** `CC(=O)N[C@H]1[C@H]([C@H](O)[C@H](O)CO)O[C@@](O[C@H]2[C@@H](O)[C@@H](CO)O[C@@H](O[C@H]3[C@H](O)[C@@H](NC(C)=O)C(O)O[C@@H]3CO)[C@@H]2O)(C(=O)O)C[C@@H]1O` (stereo partly drawn) [Siaα2–3Galβ1–4GlcNAc] was tested. Which “isotope-filtered NMR NOESY; HADDOCK structure from 9 intermolecular NOEs” value did it give?
**A.** intermolecular NOEs
